Read-outs that look alike come from different tables or passages of the source.
How the values were obtained:
[1] = tested on: RNR containing hRRM2 or p53R2; experiment: In vitro RNR activity assay, both reconstituted RNRs compared (average, selective index, comparison in words); type: biochemical, human; conditions: for Selective index: M2/M1 versus p53R2/M1
Procedure: (§1) To reconstitute an active RNR, three 6′His-tag human RNR subunit proteins (hRRM2, p53R2, and hRRM1) were prokaryotically expressed, purified using Ni-resin affinity chromatography, and stored in 50 mM Tris-HCl, pH 7.4, 100 mM KCl at −70° C. according to standard techniques. The purified proteins were subjected to SDS-PAGE analysis. […] To reconstitute RNR, 1 μM of hRRM2 or p53R2 protein was incubated with 0.5 μM hRRM1 protein in multiple-well plates. The reconstitute RNR was tested for RNR activity according to standard techniques.
(§2) Each compound of various concentration was mixed with the purified hRRM2 and hRRM1, or p53R2 and hRRM1 at room temperature for 30 minutes. An enzymatic reaction buffer was then added to the mixture to reach a final volume of 100 μl and incubated at 37° C. for 30 minutes. The reaction buffer contained […] [^3H] CDP, 50 mM HEPES pH 7.2,6 mM DTT, 4 mM MgOAC, 2 mM ATP, 0.05 mM CDP, 100 mM KCl, and 0.24 mM NADPH. […] FeCl3 could be added to the buffer as an iron source. After dephosphorylation, the supernatant of each reaction mixture was analyzed by an HPLC-connected radioactivity detector. IC50 values were calculated by the non-linear regression equations: f (x)=(a-d)/[1+(x/c)^b]+d.
(§3) The above-described four SB-HSCs were tested for their inhibitory potency and subunit-selectivity by the in vitro RNR assay in the same manner descried above. The dose-dependent inhibition curves were found.

[2] = target: T1, M2/M1 (hRRM2 and hRRM1 reconstituted RNR) (Homo sapiens, UniProt P31350); experiment: In vitro RNR activity assay with reconstituted hRRM2/hRRM1 ([3H]CDP reduction); type: biochemical; conditions: read-out: In vitro RR activity (IC50 ± sd) M2/M1
T1 construct: 6xHis; made in house
T1 sequence (P31350 1-389): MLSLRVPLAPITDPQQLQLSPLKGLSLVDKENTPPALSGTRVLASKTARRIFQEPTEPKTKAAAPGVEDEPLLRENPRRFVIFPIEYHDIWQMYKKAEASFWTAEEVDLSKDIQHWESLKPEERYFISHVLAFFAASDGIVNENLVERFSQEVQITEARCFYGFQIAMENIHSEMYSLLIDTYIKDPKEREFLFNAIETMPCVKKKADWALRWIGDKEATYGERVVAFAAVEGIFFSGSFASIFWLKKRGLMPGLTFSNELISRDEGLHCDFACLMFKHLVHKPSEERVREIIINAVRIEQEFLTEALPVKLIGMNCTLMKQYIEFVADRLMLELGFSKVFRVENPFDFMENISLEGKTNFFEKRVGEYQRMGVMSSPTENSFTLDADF
Procedure: as §1, §2

[3] = target: T2, p53R2/M1 (p53R2 and hRRM1 reconstituted RNR) (Homo sapiens, UniProt Q7LG56); experiment: In vitro RNR activity assay with reconstituted p53R2/hRRM1 ([3H]CDP reduction); type: biochemical; conditions: read-out: In vitro RR activity (IC50 ± sd) p53R2/M1
T2 construct: 6xHis; made in house
T2 sequence (Q7LG56 1-351): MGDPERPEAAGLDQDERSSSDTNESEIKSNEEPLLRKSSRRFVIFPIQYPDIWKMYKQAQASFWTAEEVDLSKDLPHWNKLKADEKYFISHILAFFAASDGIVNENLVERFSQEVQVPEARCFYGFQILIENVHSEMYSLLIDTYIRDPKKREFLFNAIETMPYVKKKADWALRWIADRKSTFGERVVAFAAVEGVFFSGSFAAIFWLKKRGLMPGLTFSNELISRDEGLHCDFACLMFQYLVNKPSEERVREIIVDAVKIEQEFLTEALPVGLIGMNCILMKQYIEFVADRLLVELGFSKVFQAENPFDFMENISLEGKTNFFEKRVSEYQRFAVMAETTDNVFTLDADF
Procedure: as §1, §2

[4] = tested on: T3, RNR containing hRRM2 or p53R2; experiment: In vitro RNR activity assay, both reconstituted RNRs compared (average, selective index, comparison in words); type: biochemical, human; conditions: average of M2/M1 and p53R2/M1, read-out: In vitro RR activity (IC50) Average
T3 construct: In vitro RR activity (IC50) Average; other: compound in 1% DMSO; average of M2/M1 and p53R2/M1; other: compound in 2.5% DMSO; other: compound in dH2O + FeCl3; other: compound in dH2O; Inhi; fused on or other part: 6xHis tag on each subunit
Procedure: as §1, §2, §3

[5] = Standard cell-based assay; conditions: read-out: Cell-based assay (IC50 ± sd)
[6] = target: T4, hRRM1 (human ribonucleotide reductase large subunit M1)
T4 chain: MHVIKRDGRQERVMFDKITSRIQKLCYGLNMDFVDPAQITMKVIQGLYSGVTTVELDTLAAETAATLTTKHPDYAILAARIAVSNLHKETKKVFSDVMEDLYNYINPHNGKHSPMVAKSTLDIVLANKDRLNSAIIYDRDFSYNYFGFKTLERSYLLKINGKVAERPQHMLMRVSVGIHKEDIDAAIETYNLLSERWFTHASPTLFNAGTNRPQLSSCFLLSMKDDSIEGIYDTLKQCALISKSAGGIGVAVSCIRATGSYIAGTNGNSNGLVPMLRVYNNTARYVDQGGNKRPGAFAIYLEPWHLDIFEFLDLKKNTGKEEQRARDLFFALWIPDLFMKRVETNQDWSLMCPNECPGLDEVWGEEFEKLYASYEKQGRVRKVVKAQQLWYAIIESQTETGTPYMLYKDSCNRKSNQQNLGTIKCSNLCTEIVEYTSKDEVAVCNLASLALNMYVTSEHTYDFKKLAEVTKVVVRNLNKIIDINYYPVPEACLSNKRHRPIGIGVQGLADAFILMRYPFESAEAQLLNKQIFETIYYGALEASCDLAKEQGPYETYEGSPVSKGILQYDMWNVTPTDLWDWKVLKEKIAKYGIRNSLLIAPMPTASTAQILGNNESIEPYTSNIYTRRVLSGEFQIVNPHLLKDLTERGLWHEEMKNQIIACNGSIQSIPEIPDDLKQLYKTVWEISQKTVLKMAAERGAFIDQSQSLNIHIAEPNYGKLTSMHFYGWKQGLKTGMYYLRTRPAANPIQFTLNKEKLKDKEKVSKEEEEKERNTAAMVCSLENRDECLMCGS

[7] = target: T5, hRRM1 (human ribonucleotide reductase large subunit M1) (human, UniProt P23921 1-792); experiment: complex formation (method not described)
T5 construct: also called R1 subunit
T5 sequence: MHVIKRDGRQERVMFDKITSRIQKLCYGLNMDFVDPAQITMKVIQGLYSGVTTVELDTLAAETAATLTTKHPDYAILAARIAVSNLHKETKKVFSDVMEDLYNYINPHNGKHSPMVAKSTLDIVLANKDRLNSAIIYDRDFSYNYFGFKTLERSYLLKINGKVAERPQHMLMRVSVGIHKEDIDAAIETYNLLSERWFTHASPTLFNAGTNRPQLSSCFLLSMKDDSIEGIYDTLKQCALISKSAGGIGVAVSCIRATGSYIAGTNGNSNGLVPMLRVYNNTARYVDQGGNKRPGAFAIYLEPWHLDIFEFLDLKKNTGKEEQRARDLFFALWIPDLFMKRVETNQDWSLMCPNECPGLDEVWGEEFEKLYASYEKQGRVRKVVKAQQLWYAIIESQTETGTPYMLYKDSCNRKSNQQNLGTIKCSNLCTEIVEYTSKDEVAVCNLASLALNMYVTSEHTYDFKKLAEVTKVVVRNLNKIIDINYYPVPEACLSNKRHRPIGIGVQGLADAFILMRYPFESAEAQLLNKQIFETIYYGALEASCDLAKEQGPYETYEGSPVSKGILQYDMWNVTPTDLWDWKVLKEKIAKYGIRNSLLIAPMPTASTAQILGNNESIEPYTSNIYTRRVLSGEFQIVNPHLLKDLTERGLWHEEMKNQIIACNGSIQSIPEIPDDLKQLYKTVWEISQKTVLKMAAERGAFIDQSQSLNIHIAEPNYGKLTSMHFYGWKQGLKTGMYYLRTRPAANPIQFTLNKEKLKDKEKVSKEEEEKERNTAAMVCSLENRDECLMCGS

Molecule	Small subunit selectivity of RNR inhibition (in words) [1]	IC50 ([2]; compound in 2.5% DMSO) [µM]	IC50 ([3]; compound in 2.5% DMSO) [µM]	IC50 ([4]; compound in 2.5% DMSO) [µM]	IC50 [5] [µM]	other results
C[S+](C)[O-] [DMSO]	inhibited p53R2-containing-RNR more potently than hRRM2-containing RNR					
O=C(NO)NN=Cc1cc(Cl)cc(Cl)c1O [SB-HSC2]	significantly more efficient in inactivating p53R2	111 ± 6.64	30.6 ± 1.62	70.7	6.5 ± 0.6	Selective index ([1]; compound in 2.5% DMSO): 3.62
O=C(NO)NN=Cc1ccc(O)c(O)c1O [SB-HSC21]	almost the same inhibitory activities on both small subunits				2.7 ± 0.6	IC50 ([2]; compound in 1% DMSO): 11.5 ± 0.63 µM; IC50 ([3]; compound in 1% DMSO): 13.6 ± 0.7 µM; Selective index ([1]; compound in 1% DMSO): 0.85; IC50 ([4]; compound in 1% DMSO): 12.5 µM
O=C(NO)NN=Cc1ccc([N+](=O)[O-])s1 [SB-HSC24]	significantly more efficient in inactivating p53R2	52 ± 2.03	11.5 ± 0.6	31.7	10.6 ± 0.3	Selective index ([1]; compound in 2.5% DMSO): 4.53
Cc1c2ccccc2c(C=NNC(=O)NO)c2ccccc12 [SB-HSC29]		> 250	> 250	> 250	4.4	
NNC(N)=O [SC, semicarbazide, reference compound]					> 2190	IC50 ([2]; compound in dH2O): > 5000 µM; IC50 ([3]; compound in dH2O): > 5000 µM; IC50 ([4]; compound in dH2O): > 5000 µM
hRRM2 (human ribonucleotide reductase small subunit M2) (protein) MLSLRVPLAPITDPQQLQLSPLKGLSLVDKENTPPALSGTRVLASKTARRIFQEPTEPKTKAAAPGVEDEPLLRENPRRFVIFPIEYHDIWQMYKKAEASFWTAEEVDLSKDIQHWESLKPEERYFISHVLAFFAASDGIVNENLVERFSQEVQITEARCFYGFQIAMENIHSEMYSLLIDTYIKDPKEREFLFNAIETMPCVKKKADWALRWIGDKEATYGERVVAFAAVEGIFFSGSFASIFWLKKRGLMPGLTFSNELISRDEGLHCDFACLMFKHLVHKPSEERVREIIINAVRIEQEFLTEALPVKLIGMNCTLMKQYIEFVADRLMLELGFSKVFRVENPFDFMENISLEGKTNFFEKRVGEYQRMGVMSSPTENSFTLDADF						RNR activity of reconstituted RNR [6]: It was found it possessed RNR activity
p53R2 (human ribonucleotide reductase small subunit p53R2) (protein) MGDPERPEAAGLDQDERSSSDTNESEIKSNEEPLLRKSSRRFVIFPIQYPDIWKMYKQAQASFWTAEEVDLSKDLPHWNKLKADEKYFISHILAFFAASDGIVNENLVERFSQEVQVPEARCFYGFQILIENVHSEMYSLLIDTYIRDPKKREFLFNAIETMPYVKKKADWALRWIADRKSTFGERVVAFAAVEGVFFSGSFAAIFWLKKRGLMPGLTFSNELISRDEGLHCDFACLMFQYLVNKPSEERVREIIVDAVKIEQEFLTEALPVGLIGMNCILMKQYIEFVADRLLVELGFSKVFQAENPFDFMENISLEGKTNFFEKRVSEYQRFAVMAETTDNVFTLDADF						RNR activity of reconstituted RNR [6]: It was found it possessed RNR activity
truncated form of the M2 subunit, lacking these 7 amino acids at the C-terminus (enzyme, also called truncated M2) MLSLRVPLAPITDPQQLQLSPLKGLSLVDKENTPPALSGTRVLASKTARRIFQEPTEPKTKAAAPGVEDEPLLRENPRRFVIFPIEYHDIWQMYKKAEASFWTAEEVDLSKDIQHWESLKPEERYFISHVLAFFAASDGIVNENLVERFSQEVQITEARCFYGFQIAMENIHSEMYSLLIDTYIKDPKEREFLFNAIETMPCVKKKADWALRWIGDKEATYGERVVAFAAVEGIFFSGSFASIFWLKKRGLMPGLTFSNELISRDEGLHCDFACLMFKHLVHKPSEERVREIIINAVRIEQEFLTEALPVKLIGMNCTLMKQYIEFVADRLMLELGFSKVFRVENPFDFMENISLEGKTNFFEKRVGEYQRMGVMSSPTENS						binding result [7]: no binding
